Test results from patent US10286039B2, “Compositions and methods for treating neutropenia” (Children's Hospital Los Angeles, priority 2014, dated 2019).

B1: GCSF: granulocyte colony-stimulating factor (protein, UniProt P09919 31-207, looked up)
Granulocyte …: TPLGPASSLPQSFLLKCLEQVRKIQGDGAALQEKLVSECATYKLCHPEELVLLGHSLGIPWAPLSSCPSQALQLAGCLSQLHSGLFLYQGLLQALEGISPELGPTLDTLQLDVADFATTIWQQMEELGMAPALQPTQGAMPAFASAFQRRAGGVLVASHLQSFLEVSYRVLRHLAQP

What was measured:
S. aureus [1] = assay: Neutrophil bactericidal activity, neutropenic mice at neutrophil-decrease stage, medium dose; type: in vivo, C57BL/6J mice; details: for neutrophil induction by bacterial infection: neutrophil-decrease stage, Vetscan analysis of PB
Protocol: FIG. 6A experimental design. C57BL/6J mice (n=19) were randomly divided into five groups (3 for control and 4 for each of experimental groups). Mouse neutropenia was induced by IP injection of CPA on day 0. After 4 hrs of CPA injection, different regimens were given to mice once a day, with Am80 by oral or GCSF by SC or vehicle by oral. Mice were challenged by 6.3×10^6 CFU of S. aureus on day 2 via tail vein injection. After 3 hrs infection, each 100 μl blood was collected from tails for analysis of initial bactericidal activity of neutrophils. The mice were sacrificed 16 hrs post-infection, by which PB and heart were harvested. (FIG. 6B) Vetscan analysis of WBC and neutrophils in PB. Except blank mice, neutrophil induction was not observed in all other groups (FIG. 6C-E). Bactericidal activities of neutrophils were determined 3 hr (FIG. 6C) and 16 hrs post-infection (FIG. 6D) in PB as well as in heart (panel E), by using blood agar analysis of viable extracellular bacteria. […] A+G: Am80-GCSF.

S. aureus [2] = assay: Neutrophil bactericidal activity, neutropenic mice at neutrophil-decrease stage, lower dose; type: in vivo, C57BL/6J mice; details: for neutrophil induction by bacterial infection: neutrophil-decrease stage, Vetscan analysis of PB
Protocol: Mice (C57BL6/J) were randomly divided into five groups (3 control and 4 for each experimental group, n=19 mice). C57BL/6J mice (n=19) were randomly divided into five groups (3 for control and 4 for each of experimental groups). The procedures for induction of mouse neutropenia and treatment are the same to the medium dose test (see slide 6). Mice were challenged with 6.3×10^6 CFU of S. aureus on day 2 via tail vein injection. After 3 hrs infection, each 100 μl blood was collected from tails for determining initial bactericidal activities of neutrophils. The mice were sacrificed on day 3, by which PB and spleen were harvested. (FIG. 7A). Vetscan analysis of WBC and neutrophils in PB was performed (FIG. 7B). Except blank mice, neutrophil induction was not observed in all other groups (FIG. 7C-E). Bactericidal activities of neutrophils were determined 3 hr (panel C) and 16 hrs post-infection (panel D) in PB as well as in spleen (panel E), using blood agar analysis of viable extracellular bacteria.

CD34+ cells = assay: Western blot and gene transcription in CD34+ cells; type: cell-based
Text: A novel gene transcription pattern is induced by Am80, in contrast to All-trans retinoic acid (ATRA or RA).

S. Aureus [3] = assay: Neutrophil bactericidal activity and production, neutropenic mice at neutrophil-recovery stage, lower dose; type: in vivo, Mice (C57BL6/J)
Protocol: Mice (C57BL6/J) were randomly divided into five groups (3 control and 4 for each experimental group, n=19 mice). As illustrated (FIG. 8a), mice were given regimens 2 days post-CPA injection (200 mg/kg). After consecutive 3 days of treatment, mice were challenged with S. Aureus for up to 16 hrs before euthanasia. We found a significant increase of peripheral blood (PB) neutrophils in all groups after bacterial infection (FIG. 8b). PB collected at 3 and 16 hrs-post infection was used for analyzing of neutrophil bactericidal activities. […] However, with low doses of Am80-GCSF treatment, Am80 can effectively differentiate GCSF-regenerated granulocytic precursors into mature neutrophils against microbial infection. P<0.05; **: P<0.01; ***: P<0.005.

neutropenic mice = assay: Neutrophil recovery in CPA-induced neutropenic mice at neutrophil-decrease stage; type: in vivo, C57BL6/J mice
Protocol: To evaluate Am80 effect in vivo, we first tested half maximal effective concentration (EC50) of different human equivalent high, medium, and low doses of Am80 and GCSF (FIG. 5a) on regenerating mature neutrophils in neutropenic mice. Normal C57BL6/J mice were injected with a single dose of cyclophosphamide (CPA) to reduce mouse neutrophils. At 4 hr post-injection of CPA, mice were treated with vehicle, Am80, GCSF, or Am80-GCSF for consecutive 3 days before mice were sacrificed (FIG. 5b). […] Data represent 2 independent experiments with similar results.

AML BM primary blasts = assay: Proliferation of primary blasts from acute myeloid leukemia patients; type: cell-based, human
Protocol: Proliferation of PB primary blasts from acute myeloid leukemia patients was assayed (FIG. 13A) and quantified P<0.05 (FIG. 13B). Granulocytic morphology of AML PB primary blasts was analyzed (FIG. 13C) and quantified; Am80 vs. G-CSF, P<4.0E-8; Am80 vs. control, P<6.02E-7 (FIG. 13D).
Proliferation of BM primary blasts from acute myeloid leukemia patients was assayed (FIG. 13E) and quantified at day 8, Am80 vs. G-CSF, P<0.008; G-CSF vs. control, P<0.032 (FIG. 13F). Granulocytic morphology of AML BM primary blasts was analyzed (FIG. 13G) and quantified; Am80 vs. G-CSF, P<9.9E-4; Am80 vs. RA, P<1.0E-4 (FIG. 13H).

S. Aureus [4] = assay: Survival of neutropenic mice enduring continual bacteremia; type: in vivo; details: treatment 24 hrs post-CPA
Protocol: If Am80 can indeed differentiate GCSF-regenerated great amount of granulocytic precursors into mature neutrophils against infection, Am80-GCSF combination should effectively reduce infection-related mortality in cancer chemotherapy induced neutropenia. We tested this hypothesis by using neutropenic mice experiencing bacteremia through entire neutropenia period. As illustrated (FIG. 9A), mice were given different regimens 4 hrs post-CPA injection for up to day 8. S. Aureus infection was performed on day 3, and survival rate was calculated on day 9. […] To evaluate bactericidal ability of regenerated neutrophils in survived mice, the survived blank and Am80-GCSF mice on day 11 were further infected with S. Aureus for 15 min before euthanasia. A parallel analysis of freshly isolated PB with both Giemsa and Gram stains determined neutrophil phagocytosis in infected mice vs. free of bacteremia in non-infected mice (FIG. 9E). Since GCSF is usually provided to CCIN ≥24 hrs post-chemo drug, we further tested low and medium doses of Am80-GCSF treatment 24 hrs post-CPA, as illustrated (FIG. 9F, 9J), with two independent experiments for each of doses.

NB4 cells = assay: Proliferation, granulocytic differentiation and ROS production in NB4 cells; type: cell-based; details: day 6, in the presence of either fMLP or PMA

| Molecule | neutrophil bactericidal activity (S. aureus [1]; 3 hr and 16 hrs post-infection in PB and heart, viable extracellular bacteria) | neutrophil induction by bacterial infection (S. aureus [1]) | neutrophil bactericidal activity (S. aureus [2]; 3 hr and 16 hrs post-infection in PB and spleen, viable extracellular bacteria) | neutrophil induction by bacterial infection (S. aureus [2]) | C/EBPε, CD18, and granule LL-37 mRNA levels (CD34+ cells) | p21Cip/Kip mRNA levels (CD34+ cells) | MAT1 fragmentation (CD34+ cells; Western blot) | retinoic acid receptor (RARα) hypophosphorylation (CD34+ cells; Western blot) | neutrophil production in BM and PB (S. Aureus [3]) | sustaining neutrophil levels (PB) (neutropenic mice; low and medium doses, 3 days treatment from 4 hr post-CPA, compared to all other treatments) | granulocytic morphology differentiation (PB) (neutropenic mice; low doses vs medium doses) | growth rate of AML BM primary blasts (AML BM primary blasts; G-CSF vs. control, P<0.018) | growth of non-APL AML patient blasts (AML BM primary blasts; compared to those treated with Am80 or ATRA) | survival rate (S. Aureus [4]; low-dose test, S. Aureus infection) | survival rate (S. Aureus [4]; medium-dose test, no statistical difference between groups) | neutrophil bactericidal activity (killing assays) (S. Aureus [3]; PB at 3 and 16 hrs post-infection) | ROS production (NB4 cells) | differentiation of 3rd layer BM cells, granulocytic morphologic analysis (neutropenic mice; medium dose GCSF vs low doses of Am80-GCSF) | recovery of 3rd layer BM cells (neutropenic mice; medium dose, Percoll separation of bone marrow cells) |
| --- | --- | --- | --- | --- | --- | --- | --- | --- | --- | --- | --- | --- | --- | --- | --- | --- | --- | --- | --- |
| CC1(C)CCC(C)(C)c2cc(NC(=O)c3ccc(C(=O)O)cc3)ccc21 [Am80, tamibarotene] | significantly increased neutrophil bactericidal activity | not instigated | greater bactericidal activity than those induced by G-CSF or Am80+GCSF | not instigated | significant up-regulation | decrease | progressive induction | progressive induction | induced least number of neutrophils in both BM and PB | better EC50 effect on sustaining neutrophil levels | enhanced granulocytic morphology differentiation better than did medium doses | – | – | – | – | – | – | – | – |
| B1 | – | not instigated | – | not instigated | – | – | – | – | induced significantly more neutrophils in BM while similar amount in PB compared to Am80-GCSF | – | – | Higher growth rate | promotes the growth | 12.5% | 11.1% | significantly low bactericidal activity compared to those induced by Am80-GCSF | fails to induce ROS production | less differentiated than those induced by low doses of Am80-GCSF | induced highest recovery |
